Experimental data reported in ChEMBL document CHEMBL5230119, “Development of differentiation modulators and targeted agents for treating neuroblastoma” (Eur J Med Chem, 2020).

Key:
[1] = tested on: IMR-32; experiment: Antiproliferative activity against human IMR-32 cells assessed as cell growth inhibition; format: functional, cell-based
[2] = Synergistic antiproliferative activity against MYCN amplified human Neuroblastoma cell in presence of JQ1
[3] = Synergistic antiproliferative activity against MYCN amplified human Neuroblastoma cell in presence of OTX-015; format: functional, cell-based

For `O=C(c1ccc(F)c(F)c1Nc1ccc(I)cc1F)N1CC(O)([C@@H]2CCCCN2)C1` [COBIMETINIB], the IC50 [1] was 0.07 µM.

`Cc1sc2c(c1C)C(c1ccc(Cl)cc1)=N[C@@H](CC(=O)Nc1ccc(O)cc1)c1nnc(C)n1-2` [BIRABRESIB] gave an IC50 [2] of 0.839 µM.

Work on `Cc1sc2c(c1C)C(c1ccc(Cl)cc1)=N[C@@H](CC(=O)NC(C)(C)C)c1nnc(C)n1-2` yielded an IC50 [3] of 1.48 µM.
